# Assay results: ChEMBL document CHEMBL5137013 (Eur J Med Chem, 2022)
# Active and inactive are the calls of the source. No cut-off for these calls is given here.
# How the values were obtained:
# [1] = Cmax in Sprague-Dawley rat at 10 mg/kg, iv by HPLC-MS/MS analysis; format: ADME, organism-based; set-up: dose 10 mg/kg, route iv; conditions: in vivo
# HT-29 [2] = test: Induction of apoptosis in human HT-29 cells assessed as up regulation of phosphorylated Bcl-2 expression at 25 to 100 nM measured after 24 hrs by Western blot analysis; format: functional, cell-based; conditions: dose 25-100 nM
# HT-29 [3] = test: Induction of apoptosis in human HT-29 cells assessed as increase in cleaved caspase-9 expression at 25 to 100 nM measured after 24 hrs by Western blot analysis; format: functional, cell-based; conditions: dose 25-100 nM
# HUVEC = test: Antiangiogenic activity in HUVEC assessed as inhibition of tube formation at 12.5 to 50 nM incubated for 24 hrs by matrigel assay; format: functional, cell-based; conditions: Homo sapiens, dose 12.5-50 nM
# HeLa = test: Cytotoxicity against human HeLa cells assessed as reduction in cell viability measured after 24 hrs by MTT assay; format: functional, cell-based
# Sus scrofa = organism: Sus scrofa; test: (§1) Inhibition of porcine brain tubulin polymerization measured at 1 min interval for 60 mins by fluorescence assay; conditions: dose 1.25-5 µM, DDE = dose-dependent effect
# [4] = as §1; set-up: species or system Sus scrofa
# HT-29 [5] = test: Inhibition of colony formation in human HT-29 cells at 12.5 nM measured after 24 hrs by crystal violet staining based assay; format: functional, cell-based
# MCF7 = test: Cytotoxicity against human MCF7 cells assessed as reduction in cell viability measured after 24 hrs by MTT assay; conditions: MCF7, 24 h
# A549 [6] = test: Antimigratory activity against human A549 cells assessed as reduction in number of penetrated cells at 12.5 to 100 nM measured after 24 hrs by crystal violet staining based transwell assay; format: functional, cell-based; conditions: dose 12.5-100 nM
# [7] = Cytotoxicity against human A549/TxR cells assessed as reduction in cell viability measured after 24 hrs by MTT assay; format: functional, cell-based
# [8] = AUC in Sprague-Dawley rat at 10 mg/kg, iv by HPLC-MS/MS analysis; format: ADME, organism-based; set-up: dose 10 mg/kg, route iv; conditions: in vivo
# HT-29 [9] = test: Cell cycle arrest in human HT-29 cells assessed as effect on cdk7 expression at 25 to 100 nM measured after 24 hrs by Western blot analysis; format: functional, cell-based; conditions: dose 25-100 nM
# HT-29 [10] = test: Induction of apoptosis in human HT-29 cells assessed as increase in cleaved PARP expression at 25 to 100 nM measured after 24 hrs by Western blot analysis; format: functional, cell-based; conditions: dose 25-100 nM
# [11] = Resistance index, ratio of IC50 for human A549/TxR cells to IC50 for human A549 cells; format: functional
# [12] = Half-life in Sprague-Dawley rat at 10 mg/kg, iv by HPLC-MS/MS analysis; format: ADME, organism-based; conditions: in vivo
# A549 [13] = test: Antimigratory activity against human A549 cells assessed as reduction in scratch wound recovery measured after 24 hrs by scratch wound healing assay; format: functional, cell-based; conditions: dose 15-250 nM, DDE = dose-dependent effect
# HT-29 [14] = test: Induction of apoptosis in human HT-29 cells assessed as down regulation of Bim expression at 25 to 100 nM measured after 24 hrs by Western blot analysis; format: functional, cell-based; conditions: dose 25-100 nM
# HT-29 [15] = test: Induction of apoptosis in human HT-29 cells assessed as increase in cleaved caspase-3 expression at 25 to 100 nM measured after 24 hrs by Western blot analysis; format: functional, cell-based; conditions: dose 25-100 nM
# HT-29 [16] = test: Induction of ROS generation in human HT-29 cells measured after 24 hrs by DCFH-DA dye based confocal laser scanning microscopy; format: functional, cell-based; conditions: dose 25-100 nM, DDE = dose-dependent effect
# [17] = Tmax in Sprague-Dawley rat at 10 mg/kg, iv by HPLC-MS/MS analysis; format: ADME, organism-based; conditions: in vivo
# HT-29 [18] = test: Cytotoxicity against human HT-29 cells assessed as reduction in cell viability measured after 24 hrs by MTT assay; format: functional, cell-based; conditions: HT-29, 24 h
# HT-29 [19] = test: Induction of apoptosis in human HT-29 cells assessed as increase in PARP expression at 25 to 100 nM measured after 24 hrs by Western blot analysis; format: functional, cell-based; conditions: dose 25-100 nM
# [20] = Toxicity in human HT-29 cells xenografted BALB/c nude mouse assessed as effect on lung at 5 to 10 mg/kg, ip administered as 2 days interval for 3 weeks and measured 3 weeks post-initial dosing by H and E staining based histopathological analysis; format: organism-based; conditions: in vivo, 504 h, dose 5-10 mg/kg
# [21] = Toxicity in human HT-29 cells xenografted BALB/c nude mouse assessed as effect on liver at 5 to 10 mg/kg, ip administered as 2 days interval for 3 weeks and measured 3 weeks post-initial dosing by H and E staining based histopathological analysis; format: organism-based; conditions: in vivo, 504 h, dose 5-10 mg/kg
# [22] = Toxicity in human HT-29 cells xenografted BALB/c nude mouse assessed as effect on spleen at 5 to 10 mg/kg, ip administered as 2 days interval for 3 weeks and measured 3 weeks post-initial dosing by H and E staining based histopathological analysis; format: organism-based; conditions: in vivo, 504 h, dose 5-10 mg/kg
# [23] = Clearance in Sprague-Dawley rat at 10 mg/kg, iv by HPLC-MS/MS analysis; format: ADME, organism-based; conditions: in vivo
# A549 [24] = test: Cytotoxicity against human A549 cells assessed as reduction in cell viability measured after 24 hrs by MTT assay; conditions: A549, 24 h
# HT-29 [25] = test: Cell cycle arrest in human HT-29 cells assessed as cell accumulation at G2/M phase at 100 nM measured after 24 hrs by propidium iodide staining based flow cytometry (reference value: 20.9%); format: functional
# Tubulin (Homo sapiens) [26] = target: T1, Tubulin (Homo sapiens) (UniProt P68371+Q9H4B7+P0DPH7+P68366+Q13509+Q71U36+P04350+Q3ZCM7+P07437+P68363+Q9BQE3+Q6PEY2+Q13885+Q9BVA1+Q9BUF5); test: Displacement of [3H] colchicine from tubulin (unknown origin) at 2.5 uM measured after 2 hrs by scintillation counting analysis relative to control; format: protein-complex assay
# A549 [27] = test: Antimigratory activity against human A549 cells assessed as reduction in scratch wound recovery at 60 nM measured after 24 hrs by scratch wound healing assay relative to control; format: functional; set-up: scale not given: the % may be the effect or the level left
# Tubulin (Homo sapiens) [28] = target: T1, Tubulin (Homo sapiens); test: Induction of microtubule disruption in human HT-29 cells measured after 6 hrs by immunofluorescence assay; format: cell-based; conditions: dose 25-100 nM, DDE = dose-dependent effect
# Tubulin (Homo sapiens) [29] = target: T1, Tubulin (Homo sapiens); test: Displacement of [3H] colchicine from tubulin (unknown origin) at 5 uM measured after 2 hrs by scintillation counting analysis relative to control; format: protein-complex assay
# [30] = Toxicity in human HT-29 cells xenografted BALB/c nude mouse assessed as effect on kidney at 5 to 10 mg/kg, ip administered as 2 days interval for 3 weeks and measured 3 weeks post-initial dosing by H and E staining based histopathological analysis; format: organism-based; conditions: in vivo, 504 h, dose 5-10 mg/kg
# [31] = Toxicity in human HT-29 cells xenografted BALB/c nude mouse assessed as effect on heart at 5 to 10 mg/kg, ip administered as 2 days interval for 3 weeks and measured 3 weeks post-initial dosing by H and E staining based histopathological analysis; format: organism-based; conditions: in vivo, 504 h, dose 5-10 mg/kg
# HT-29 [32] = test: Induction of apoptosis in human HT-29 cells assessed as up regulation of Bax expression at 25 to 100 nM measured after 24 hrs by Western blot analysis; format: functional, cell-based; conditions: dose 25-100 nM
# HT-29 [33] = test: Induction of mitochondrial dysfunction in human HT-29 cells assessed as increase in green fluorescence intensity measured after 24 hrs by JC-1 staining based JC-1 dye based confocal laser scanning microscopy; format: functional, cell-based; conditions: dose 25-100 nM, DDE = dose-dependent effect
# HT-29 [34] = test: Cell cycle arrest in human HT-29 cells assessed as effect on cdc2 expression at 25 to 100 nM measured after 24 hrs by Western blot analysis; format: functional, cell-based; conditions: dose 25-100 nM
smiles,measurement,setting,value
COC(=O)c1cc2c(cc1Nc1cc(OC)c(OC)c(OC)c1)OCCO2,Cmax,[1],6880 ng/mL
same,Activity,HT-29 [2],Active
same,Activity,HT-29 [3],Active
same,inhibition,HUVEC,Active
same,IC50,HeLa,35 nM
same,inhibition,Sus scrofa,Dde
same,IC50,[4],1090 nM
same,inhibition,HT-29 [5],Active
same,IC50,MCF7,140 nM
same,Activity,A549 [6],Active
same,IC50,[7],310 nM
same,AUC,[8],5670 µg/L.hr
same,Activity,HT-29 [9],Active
same,Activity,HT-29 [10],Active
same,Ratio IC50,[11],1.2
same,t1/2,[12],104 min
same,Activity,A549 [13],Dde
same,Activity,HT-29 [14],Active
same,Activity,HT-29 [15],Active
same,Activity,HT-29 [16],Dde
same,Tmax,[17],8.4 min
same,IC50,HT-29 [18],23 nM
same,Activity,HT-29 [19],Active
same,Activity,[20],Non-Toxic
same,Activity,[21],Non-Toxic
same,Activity,[22],Non-Toxic
same,CL,[23],29.3 mL/min/kg
same,IC50,A549 [24],240 nM
same,Activity,HT-29 [25],87.5%
same,inhibition,Tubulin (Homo sapiens) [26],77.6%
same,Activity,A549 [27],85.2%
same,Activity,Tubulin (Homo sapiens) [28],Dde
same,inhibition,Tubulin (Homo sapiens) [29],93.5%
same,Activity,[30],Non-Toxic
same,Activity,[31],Non-Toxic
same,Activity,HT-29 [32],Active
same,Activity,HT-29 [33],Dde
same,Activity,HT-29 [34],Active
